Results reported in patent US7812121B2 (priority 2006, dated 2010).
“Also recorded” adds a separate entry of the source. Ends that are not written are not given here.

Experiments:
[1] = biological target: T1, mutated human GLP-2R (Homo sapiens, UniProt O95838, E512D/G511A/L513V); test: cAMP expression assay; type: cell-based; settings: for EC50: Table 5, peptides 0.01 nM to 1.0 uM, 30-minute incubation at 37° C., read-out: cAMP in Vitro EC50 values; for less activity relative to wild type GLP-2: from cAMP EC50
T1 construct: expressed in transfected cells; host or cells: HEK 293E (clonal line, transfected)
T1 sequence (O95838 1-553 G511A/E512D/L513V): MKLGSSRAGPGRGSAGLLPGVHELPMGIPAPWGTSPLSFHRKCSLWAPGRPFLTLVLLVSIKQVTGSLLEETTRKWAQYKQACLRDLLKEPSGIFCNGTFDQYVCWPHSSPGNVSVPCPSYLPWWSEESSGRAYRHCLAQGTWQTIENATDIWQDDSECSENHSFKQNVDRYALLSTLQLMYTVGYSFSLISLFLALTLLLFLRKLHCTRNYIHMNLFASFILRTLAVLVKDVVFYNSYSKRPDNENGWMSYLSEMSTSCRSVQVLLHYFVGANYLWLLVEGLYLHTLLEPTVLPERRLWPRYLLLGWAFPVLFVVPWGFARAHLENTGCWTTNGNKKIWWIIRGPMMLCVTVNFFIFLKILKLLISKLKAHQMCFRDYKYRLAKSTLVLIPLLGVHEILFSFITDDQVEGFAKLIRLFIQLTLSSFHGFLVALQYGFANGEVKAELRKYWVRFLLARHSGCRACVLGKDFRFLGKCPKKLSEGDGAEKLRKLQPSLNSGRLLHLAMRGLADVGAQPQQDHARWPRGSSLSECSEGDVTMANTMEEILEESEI
Text: To achieve this goal, a clonal cell line expressing a mutated human GLP-2R was generated by transfecting HEK 293E cells. The mutated human GLP-2R differs from the wild-type human GLP-2R (SEQ ID NO: 35) at three amino acid positions within the C-terminal intracellular region (SEQ ID NO: 36).
The CAMP expression was quantitated using the cAMP Direct Screen System (Cat. No. CSD 200, Applied Biosystems, Bedford, Mass.).
This assay was based on the cAMP Direct screen system from Applied Biosystems utilizing a cell line expressing mutated huGLP-2R in HEK 293E cells. Peptide at concentrations ranging from 0.01 nM to 1.0 uM in PBS with 0.5% BSA was added to ˜50,000 cells suspended in 96-well plates. After a 30-minute incubation at 37° C., Lysis Buffer followed by luminescence reagents (Applied Biosystems) was added according to the manufacturers' procedures (Applied Biosystems Luminescence protocol: cAMP-Screen Direct System). Luminescence was quantitated using a TopCount liquid scintillation analyzer (PerkinElmer), and data was processed using Softmax software (Molecular Devices Corporation).

[2] = CD spectra secondary structure; type: physicochemical; settings: 0.2 mg/mL peptide in PBS, 25° C.
Procedure: The secondary structures of tested peptides were determined using 0.2 mg/mL peptide solutions in PBS. Briefly, CD spectra were collected in triplicate at 1 nm intervals at 25° C. in 0.1 cm path length cell. Secondary structures were determined by fitting of the CD spectra using CD spectra software (CD Spectra Deconvolution software 2.1). All tested peptides contained peaks corresponding to the presence of alpha helices.

[3] = SEC-SLS solution molecular weight / self-association; type: physicochemical; settings: PBS (pH 7.5); for SEC-SLS elution / association state of peptides: 1 mg/ml
Procedure: Solution molecular weight of the peptides was measured by SEC-SLS. Briefly, peptide solutions in PBS (pH 7.5) at 0.4 to 2.0 mg/mL were fractionated over a Superdex peptide column (Amersham Pharmacia). The eluted peaks were monitored by static light scattering at 690 nm and solution molecular weight was determined at UV 280 nm using the Astra software package (Wyatt Inc.).

[4] = tested on: normal mice; test: Upper gastrointestinal transit, FITC-dextran method; type: in vivo; settings: 30 minute test; for upper gastrointestinal transit: single injection 4 mg/kg 4 days before, 4 mg/kg
Procedure: On the day of study, upper gastrointestinal transit was measured using the FITC-dextran method. This method provides both, a measure of gastrointestinal transit and a readout of the pattern of distribution of the test meal along the gastrointestinal tract. Mice were fed a test meal of […] of FITC-dextran solution (5 mg/ml of 70,000 molecular weight dextran conjugated to fluorescein-isothiocyanate in 0.5% methylcellulose/deionized water) administered intragastrically by an 18 gauge curved feeding tube. Following oral administration of the FITC-dextran test meal, mice were returned to their home cages. It was shown that a 30 min test period was the optimum duration for detecting accelerated transit, while a 45 min test period was optimum for detecting delayed transit. Following the appropriate test period, mice were sacrificed by carbon dioxide exposure. The entire gastrointestinal tract from the lower esophageal sphincter to the terminal colon was removed. The bowel segments were opened along the mesenteric border. The tissue and luminal contents of the stomach, 10 equal segments of small intestine, the cecum, and 3 equal segments of colon were placed in individual Eppendorf tubes containing 1 ml of PBS. The tissue was vigorously mixed on a table-top vortex, and solid materials were pelleted by centrifugation. Aliquots of the cleared supernatant were read in duplicate on a 96-well fluorescence plate reader to quantify the magnitude of the fluorescent signal in each segment of bowel. These values were used to calculate the Geometric Center (GC), which is defined as the weighted average distribution of the fluorescent signal along the gastrointestinal tract: GC=Σ(% of total fluorescent signal per segment×segment number)/100. Higher values represent faster rates of transit on scale of 1 to 15. […] The mimetibody-induced shift in the distribution pattern of FITC-dextran is shown in the upper panel. […] The GC is calculated in the lower panel for statistical comparison.

[5] = SEC-SLS solution molecular weight / self-association; type: physicochemical; settings: purified mimetibody
[6] = Pharmacokinetics in mice (TRF assay of active mimetibody); type: in vivo
Text: Blood was collected at different time points into citrate buffer containing protease inhibitors to minimize the possibility of ex vivo degradation and plasma was separated by centrifugation.
A time resolved fluorescence (TRF) assay was used to measure active mimetibody. Active mimetibody reflects the intact N-terminus of the peptide still attached to the Fc region of the mimetibody.

[7] = tested on: CD1 mice; test: Mucosal weight gain in small intestine, 10 days daily s.c. dosing; type: in vivo
Text: Afterwards, the mice were euthanized and the small intestines were removed, flushed with saline, and processed as described below.
(§1) Specifically, 4 cm sections were harvested: (1) immediately distal to the pylorus (duodenum), (2) starting 2 cm distal of the ligament of Treitz (jejunum), and (3) immediately proximal to the cecum (ileum). The remaining small intestine from ˜6 cm distal of the ligament of Treitz to 4 cm proximal to the cecum was used to prepare mucosal scrapings. From the proximal and distal ends of the remnant, an equal distance was removed until a 15 cm section remained, the remnant was cut longitudinally, rinsed, and the mucosal layer was removed using the short end of a glass microscope slide. The wet weight of the intact intestinal segments and mucosa was measured.

[8] = tested on: mice; test: Pharmacodynamics, dosing regimens, 11 day study; type: in vivo
Text: as §1
The duration of the study was 11 days and tissue was processed as described in Example 4.

[9] = Incubation with U937 cell lysate, SDS-PAGE; type: in vitro ADME; settings: 24 hour test period, compared with A2G GLP-2 mimetibody (SEQ ID NO: 5)
Procedure: The purified Pro substitution variants were incubated with U937 cell lysate in the presence of CompleteMini protease inhibitor tablets (Cat. No. 1 836 153, Roche Applied Science, Indianapolis, Ind.) for 0, 12, or 24 hours. Afterwards, GLP-2 mimetibody variants were purified using Protein A beads and resolved on a SDS-PAGE gel.

Molecule: CC[C@H](C)[C@H](NC(=O)[C@H](Cc1ccccc1)NC(=O)[C@H](CC(=O)O)NC(=O)[C@H](CCCNC(=N)N)NC(=O)[C@H](C)NC(=O)[C@H](C)NC(=O)[C@H](CC(C)C)NC(=O)[C@H](CC(N)=O)NC(=O)[C@H](CC(=O)O)NC(=O)[C@H](CC(C)C)NC(=O)[C@@H](NC(=O)[C@@H](NC(=O)[C@H](CC(N)=O)NC(=O)[C@H](CCSC)NC(=O)[C@H](CCC(=O)O)NC(=O)[C@H](CC(=O)O)NC(=O)[C@H](CO)NC(=O)[C@H](Cc1ccccc1)NC(=O)[C@H](CO)NC(=O)CNC(=O)[C@H](CC(=O)O)NC(=O)[C@H](C)NC(=O)[C@@H](N)Cc1c[nH]cn1)[C@@H](C)O)[C@@H](C)CC)C(=O)N[C@@H](CC(N)=O)C(=O)N[C@@H](Cc1c[nH]c2ccccc12)C(=O)N[C@@H](CC(C)C)C(=O)N[C@H](C(=O)N[C@@H](CCC(N)=O)C(=O)N[C@H](C(=O)N[C@@H](CCCCN)C(=O)N[C@H](C(=O)N[C@H](C(=O)N[C@@H](CC(=O)O)C(=O)O)[C@@H](C)O)[C@@H](C)CC)[C@@H](C)O)[C@@H](C)CC [SEQ ID NO: 1, GLP-2, reference compound]
- stimulation of cAMP expression ([1]; clonal HEK 293E line expressing mutated human GLP-2R): stimulated cAMP expression
- Helix [2]: 19.6%
- Random coil [2]: 37.9%
- association state ([3]; 0.4 mg/mL): monomer
- SEC-SLS elution / association state of peptides [3]: overlapping dimer and monomer peaks

Molecule: GLP-1 [SEQ ID NO: 79, reference compound]
- Helix [2]: 16.8%
- Random coil [2]: 41.9%
- SEC-SLS elution / association state of peptides [3]: single peak with molecular weight within the expected monomer size

Molecule: HGDGSFSDEMNTILDGQAARDFINWLIQTKITD [SEQ ID NO: 55, GLP-2(A2G, N16G, L17Q)]
- EC50 [1]: 3.5 nM
- less activity relative to wild type GLP-2 [1]: 2 ×
- Random coil [2]: 41.4%
- Helix ([2]; listed as GLP-2 (A2G, N16G, L17Q)): 17.0%
- Helix ([2]; listed as GLP-2(A2G, N16G, L17Q)): ~17%
- SEC-SLS elution / association state of peptides [3]: mainly monomeric peptide

Molecule: HGDGSFSDEMNTILDNQAARDFINWLIQTKITD [SEQ ID NO: 54, GLP-2(A2G, L17Q)]
- EC50 [1]: 5.2 nM
- less activity relative to wild type GLP-2 [1]: 3 ×
- Random coil [2]: 41.8%
- Helix ([2]; listed as GLP-2 (A2G, L17Q)): 16.9%
- Helix ([2]; listed as GLP-2(A2G, L17Q)): ~17%
- SEC-SLS elution / association state of peptides [3]: mainly monomeric peptide

Molecule: SEQ ID NO: 5: A2G GLP-2 mimetibody, IgG4 Hg-CH2-CH3 with S228P and P234A/L235A
- upper gastrointestinal transit ([4]; listed as A2G GLP-2 mimetibody): significant acceleration of intestinal transit
- upper gastrointestinal transit ([4]; listed as GLP-2 mimetibody): acceleration of upper gastrointestinal transit
- Geometric Center (GC) ([4]; single injection 4 days before, scale of 1 to 15, normal mice GC=6): 7.5
- SEC-SLS association state of mimetibodies [5]: dimer
- calculated half-life ([6]; CD1 mice, 3 mg/kg intravenously or subcutaneously, TRF active mimetibody): 26.5 h
- half-life higher than that of the GLP-2 peptide ([6]; mimetibody in mice vs GLP-2 peptide in humans): more than 200 fold
- increase in mucosal wet weight vs control mimetibody ([7]; 0.8 mg/kg (0.26 nmole), p<0.0001): statistically significant
- increase in mucosal wet weight vs control mimetibody ([7]; 8 mg/kg (2.6 nmole), p<0.0004): statistically significant
- mucosal wet weight (mucosal scrapings) ([7]; female CD1 mice, daily s.c. for 10 days, dose response): dose dependant increase; also recorded: dose-dependent increase
- effective in vivo dose lower than A2G GLP-2 peptide ([7]; on a molar basis): 50 fold
- mucosal weight difference to control mimetibody ([8]; 4 mg/kg every day or every other day, 11 days): more pronounced
- mucosal weight compared to control mimetibody ([8]; 4 mg/kg once per week, 11 days): significantly increased mucosal weight
- duodenum and jejunum section wet weight over control mimetibody ([8]; 4 mg/kg, all regimens except the single dose): significant increase in weight

Molecule: SEQ ID NO: 43: A2G GLP-2 mimetibody Pro substitution variant, V2 GALVAVPS (HGDGSFSDEMNTILDNLAARDFINWLIQTKITDGSGGGSGALVAVPSESKYGPPCPPCP; cysteine pairing not given here; also: part of GLP-2 mimetibody)
- degradation / resistance to proteolysis [9]: less degradation

Molecule: SEQ ID NO: 44: A2G GLP-2 mimetibody Pro substitution variant, V2 GALVAVSP (HGDGSFSDEMNTILDNLAARDFINWLIQTKITDGSGGGSGALVAVSPESKYGPPCPPCP; Mimetibody)
- degradation / resistance to proteolysis [9]: less degradation

B1: SEQ ID NO: 4: A2S GLP-2 mimetibody, IgG4 Hg-CH2-CH3 with S228P and P234A/L235A (protein)
chain: HSDGSFSDEMNTILDNLAARDFINWLIQTKITDGSGGGSGTLVTVSSESKYGPPCPPCPAPEAAGGPSVFLFPPKPDTLMISRTPEVTCVVVDVSQEDPEVQFNWYVDGVEVHNAKTKPREEQFNSTYRVVSVLTVLHQDWLNGKEYKCKVSNKGLPSSIEKTISKAKGQPREPQVYTLPPSQEEMTKNQVSLTCLVKGFYPSDIAVEWESNGQPENNYKTTPPVLDSDGSFFLYSRLTVDKSRWQEGNVFSCSVMHEALHNHYTQKSLSLSLGK
modifications: Mimetibody
- SEC-SLS association state of mimetibodies [5]: dimer
